According to US6861448B2, “NAD synthetase inhibitors and uses thereof” (priority 1998, dated 2005):
“And” between values parts separate entries of the source, which are not always exact repeats. Equal values may be shown once. Read-outs that look alike come from different tables or passages of the source.

What was measured:
B. subtilis = test: microbe, parasite or virus in culture; assay type: cell-based; conditions: multiple values = two or more tests; for MIC: Bacillus subtilis, read-out: Minimal Inhibitory Concentration (MIC), B. subtilis
S. aureus (MCR) = test: microbe, parasite or virus in culture; assay type: cell-based; conditions: for MIC: Staphylococcus aureus, read-out: Minimal Inhibitory Concentration (MIC), S. aureus (MCR), multiple values = two or more tests; for Minimal Inhibitory Concentration (MIC), S. aureus (MCR): multiple values = two or more tests
E. coli = test: MIC test (NCCLS broth dilution), growth inhibition; assay type: cell-based; conditions: in vitro
Method: (§1) Antimicrobial Testing (P. aeruginosa, E. coli, B. subtilis, S. aureus, S. aureus (MCR), A. niger and M. flavescens.)
(§2) The test compounds were solubilized, diluted, and pipetted in duplicate into 10 mL sterile culture tubes and dried under vacuum.
(§3) Challenge organisms, specified were grown overnight at 37° C. in the appropriate medium (i.e., Mueller-Hinton Broth). These pure broth cultures were diluted 1:1,000 and 2.0 mL were added to the test compound tubes.
(§4) Appropriate media controls, challenge organism viability controls, and antibiotic control dilutions (i.e., ampicillin and nystatin), were prepared in the same manner as the test compounds and run against the challenge organisms.

P aeruginosa = test: MIC test (NCCLS broth dilution), growth inhibition; assay type: cell-based; conditions: in vitro
Method: as §1, §2, §3, §4

S. aureus = test: microbe, parasite or virus in culture; assay type: cell-based; conditions: multiple values = two or more tests
NAD synthetase = NAD synthetase (Bacillus subtilis, UniProt P08164); test: NAD synthetase coupled enzyme assay; assay type: biochemical; conditions: NAD synthetase 2.0 μg/mL; 0.1 mM NaAD; 0.2 mM ATP; pH 8.5
Sequence of NAD synthetase (P08164 whole entry): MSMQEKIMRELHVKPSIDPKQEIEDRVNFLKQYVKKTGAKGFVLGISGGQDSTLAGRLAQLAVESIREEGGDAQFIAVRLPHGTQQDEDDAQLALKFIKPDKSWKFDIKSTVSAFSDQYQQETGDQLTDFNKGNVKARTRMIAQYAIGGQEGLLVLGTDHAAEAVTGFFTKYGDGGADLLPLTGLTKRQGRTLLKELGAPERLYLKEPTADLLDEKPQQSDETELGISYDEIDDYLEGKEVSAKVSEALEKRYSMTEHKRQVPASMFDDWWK
Excerpt: This Example illustrates the NAD synthetase enzyme inhibiting activity of some compounds of the present invention. [drawing 48] The coupled assay—production of NAD was monitored through conversion to NADH by alcohol dehydrogenase. [NADH] was monitored by 2 parallel methods: the change in absorbance at 340 nm, and fluorescence at 460 nm (excitation 320 nm). […] Controls were included for determining inhibitor background, precipitation, and ADH inhibition.

A. niger = test: MIC test, fungal growth inhibition; assay type: cell-based; conditions: in vitro
Method: as §1
(§5) The MIC test procedures conformed to the present protocol from the National Committee for Clinical Laboratory Standards (NCCLS), and were designed to provide basic antimicrobial data on compounds based on the MIC of the active component.
as §2, §3, §4

M. flavescens = test: microbe, parasite or virus in culture; assay type: cell-based
C. albicans = test: MIC test, fungal growth inhibition; assay type: cell-based; conditions: in vitro
Method: as §5, §2, §3, §4

[1] = system: rabbit primary renal cells (RPRC); test: Cytotoxicity in rabbit primary renal cells (annexin V / PI flow cytometry); assay type: cell-based; conditions: 24 hr, mean ± SEM; for % CELLULAR NECROSIS (RPRC): at 300 μM; for % APOPTOSIS (RPRC): at peak effect (30 μM)
Method: Cytotoxicity in Rabbit Primary Renal Cells
Isolation of Proximal Tubules and Culture Conditions
Rabbit renal proximal tubules were isolated using the iron oxide perfusion method and grown in 35-mm tissue culture dishes under improved conditions. The cell culture medium was a 1:1 mixture of DMEM/Ham's F-12 (without D-glucose, phenol red, or sodium pyruvate) supplemented with 15 mM HEPES buffer, 2.5 mM L-gluatmine, 1 μM pyridoxine HCL, 15 mM sodium bicarbonate, and 6 mM lactate. Hydrocortisone (50 nM), selenium (5 ng/mL), human transferrin (5 μg/mL), bovine insulin (10 nM) and L-ascorbic acid-2-phosphate (50 μM) were added to fresh culture medium immediately prior to daily media change.
All numbered compounds were diluted in methanol and the final concentration of methanol in RPRC was less then 0.1% (v/v).
Measurement of RPRC Death
Cell death was monitored in RPRC by assessment of both annexin V and PI staining using flow cytometry. Briefly, RPRC were exposed to the indicated concentrations of compounds for 24 hr. Media was removed and RPRC washed twice with phosphate-buffered saline (PBS) and incubated in a binding buffer (10 mM HEPES, 140 mM NaCL, 5 mM KCL, 1 mM MgCl2, 1.8 mM CaCl2, pH=7.4) containing annexin V-FITC (1 μmol) and PI (25 μg/mL). After a 10 min incubation, RPRC were washed three times in the binding buffer and were released from the monolayers by gentle scrapping with a rubber policeman. Annexin V and PI staining were measured using a BectonDickson FacsCalibur flow cytometer (San Jose, Calif.). An equal number of cells (10,000) were counted for sample and apoptotic cells were defined as those that stained positive for annexin V-FITC only. RPRC undergoing necrotic cell death stained for PI only.
RPRC isolated from one rabbit represented one experiment (n=1). Data were analyzed and are reported as means±standard error of the mean of at least 3 separate experiments.

[2] = system: Bacillus anthracis Sterne 34F2; test: microbe, parasite or virus in culture; assay type: cell-based; conditions: Bacillus anthracis
[3] = STERNE34F2, read-out: approximate MIC, B. anthracis (first value)

Row | SMILES | MIC (B. subtilis) | MIC (S. aureus (MCR)) | MIC (E. coli; Escherichia coli, read-out: Potency to inhibit growth, E. coli (MIC)) | MIC (P aeruginosa; Pseudomonas aeruginosa, read-out: Potency to inhibit growth, P aeruginosa (MIC)) | MIC (S. aureus; Staphylococcus aureus, read-out: Minimal Inhibitory Concentration (MIC), S. aureus) | IC50 (NAD synthetase) | Minimal Inhibitory Concentration (MIC), B. subtilis (B. subtilis) | Potency to inhibit growth, A. niger (MIC) (A. niger) | Minimal Inhibitory Concentration (MIC), S. aureus (MCR) (S. aureus (MCR)) | Potency to inhibit growth, E. coli (MIC) (E. coli) | Potency to inhibit growth, P aeruginosa (MIC) (P aeruginosa) | Minimal Inhibitory Concentration (MIC), M. flavescens (M. flavescens) | Potency to inhibit growth, C. albicans (MIC) (C. albicans) | Minimal Inhibitory Concentration (MIC), S. aureus (S. aureus) | % CELLULAR NECROSIS (RPRC) [1] | % APOPTOSIS (RPRC) [1] | MIC [2, 3] | MIC ([2]; STERNE34F2, read-out: approximate MIC, B. anthracis (second value))
1 | C[C@H]1c2cccc(O)c2C(=O)C2=C(O)[C@]3(O)C(=O)C(C(N)=O)=C(O)[C@@H](N(C)C)[C@@H]3[C@@H](O)[C@@H]21 [Doxycycline, reference compound] | < 1.56 µg/mL | < 30 µg/mL | < 1.56 µg/mL | < 30 µg/mL | < 1.56 µg/mL | – | – | – | – | – | – | – | – | – | – | – | – | –
2 | C[N+](C)(C)[C@@H](Cc1ccccc1)C(=O)NCCCCCCCCn1ccc2cc(OCc3ccccc3)ccc21.[I-] [Compound 1447] | – | – | – | – | – | 22.1 µM | <1.56 µg/mL and <0.78 µg/mL | >50; >50 μg/mL | <1.56; μg/mL and <1.56 μg/mL | >50: <50 μg/mL | >50; >50 μg/mL | <6.25 µg/mL | < 6.25 µg/mL and < 3.13 µg/mL | <1.56; μg/mL and <0.78 μg/mL | – | – | – | –
3 | C[C@@H]1[C@H](O)[C@@H](C)/C=C/C=C/C=C/C=C/C=C/C=C/C=C/[C@H](O[C@@H]2O[C@H](C)[C@@H](O)[C@H](N)[C@@H]2O)C[C@@H]2O[C@](O)(C[C@@H](O)C[C@@H](O)[C@H](O)CC[C@@H](O)C[C@@H](O)CC(=O)O[C@H]1C)C[C@H](O)[C@H]2C(=O)O [Amphotericin B, reference compound] | – | – | – | – | – | – | – | <1.56 µg/mL | – | – | – | – | <1.56 µg/mL | – | – | – | – | –
4 | C[N+](C)(C)C(Cc1ccccc1)C(=O)NCCCCCCCCOc1ccc(OC(=O)c2cc(F)cc(F)c2F)cc1 (stereo not shown) [Compound 1617] | < 12.5 µg/mL | < 6.25 µg/mL | – | – | – | 31.4 µM | – | – | – | – | – | – | – | – | 18 ± 2% | 23 ± 3% | 16 µg/mL | –
5 | C[N+](C)(C)C(Cc1ccccc1)C(=O)NCCCCCCCCOc1ccc(OC(=O)c2cccc(Cl)c2)cc1 (stereo not shown) [Compound 1594] | > 50 µg/mL | < 6.25 µg/mL | – | – | – | 25 µM | – | – | – | – | – | – | – | – | 29 ± 4% | 13 ± 2% | 8 µg/mL | 32 µg/mL
6 | COc1cccc(COc2ccc(OCCCCCCCCNC(=O)[C@H](Cc3ccccc3)[N+](C)(C)C)cc2)c1.[I-] [Compound 1423] | – | – | – | – | – | 32.9 µM | <0.20 µg/mL | <50 µg/mL | <1.56 µg/mL | >50 µg/mL | >50 µg/mL | – | <3.13 µg/mL | <1.56 µg/mL | – | – | – | –
7 | C[N+](C)(C)[C@@H](Cc1ccccc1)C(=O)NCCCCCCCCOc1ccc2c(c1)C(=O)CC(c1ccccc1)O2.[I-] (stereo partly shown) [Compound 1450] | – | – | – | – | – | 31.7 µM | <3.13 µg/mL | >50 µg/mL | <3.13 µg/mL | >50 µg/mL | >50 µg/mL | <3.13 µg/mL | <6.25 µg/mL | <3.13 µg/mL | – | – | – | –
